In ChEMBL document CHEMBL1133307, “Synthesis of 5-substituted analogues of huperzine A” (Bioorg Med Chem Lett, 2000) one finds inhibition data, which are given here for 3 compounds.

By inhibition is commonly meant the relative decrease from the control value, in per cent.

Test [1] concerns the target Acetylcholinesterase (Homo sapiens) (UniProt P22303). As to the kind of experiment: Percent inhibition against acetylcholinesterase (ACHE) at a concentration of 35 uM.
Test [2] has the same target. The test can be described thus: Percent inhibition against acetylcholinesterase (ACHE) at a concentration of 88 uM.
Test [3] shares this target. The test can be described thus: Percent inhibition against acetylcholinesterase (ACHE) at a concentration of 47 uM.

Sequence of Acetylcholinesterase (Homo sapiens) (P22303 whole entry): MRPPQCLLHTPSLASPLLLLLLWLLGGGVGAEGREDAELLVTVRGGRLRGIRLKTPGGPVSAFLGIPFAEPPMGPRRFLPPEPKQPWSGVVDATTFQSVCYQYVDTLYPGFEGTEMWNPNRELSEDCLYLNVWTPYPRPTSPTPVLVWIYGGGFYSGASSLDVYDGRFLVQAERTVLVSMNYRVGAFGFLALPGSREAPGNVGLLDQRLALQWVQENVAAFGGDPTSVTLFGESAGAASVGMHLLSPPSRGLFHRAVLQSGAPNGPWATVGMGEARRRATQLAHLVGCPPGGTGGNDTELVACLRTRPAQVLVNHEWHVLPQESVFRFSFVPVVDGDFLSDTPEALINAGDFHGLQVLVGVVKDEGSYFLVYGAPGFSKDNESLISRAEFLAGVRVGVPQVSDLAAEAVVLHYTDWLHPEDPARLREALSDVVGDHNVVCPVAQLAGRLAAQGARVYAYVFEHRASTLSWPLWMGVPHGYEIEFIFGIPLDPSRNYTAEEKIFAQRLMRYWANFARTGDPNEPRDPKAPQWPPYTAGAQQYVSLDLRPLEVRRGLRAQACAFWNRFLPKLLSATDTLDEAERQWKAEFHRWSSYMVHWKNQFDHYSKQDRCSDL

Regarding `C/C=C1\C2C=C(C)CC1(O)c1ccc(O)nc1C2` (stereo not drawn), in test [1], the inhibition was found to be 50%.

In test [2], `C/C=C1\C2C=C(C)CC1(OC(C)=O)c1ccc(O)nc1C2` (stereo not drawn) gave an inhibition of 6.36%.

On to `C/C=C1\C2C=C(C)CC1(F)c1ccc(O)nc1C2` (stereo not drawn), for which, in test [3], the inhibition was 50%.
